# Laboratory results taken from patent US20250000874A1, “BACTERIAL METABOLITES AND THEIR USE IN REDUCING INFLAMMATION” (LOYOLA UNIVERSITY OF CHICAGO, priority 2023, published 2025).
# “Also recorded” adds a separate entry of the source.
# Assays:
# Assay type in all cases: cell-based, mouse
# [1] = test system: phosphorylated NFκB (ser536); assay: NC on phospho-NFκB (ser536) levels in stimulated Raw 264.7 macrophages
# Description: FIG. 31. Compound NC on phospho-NFκB (ser536) levels in stimulated macrophages. Raw 264.7 macrophages were incubated with 50 μM of NC for 18 hours prior to stimulation with LPS or Poly I:C. Whole cell lysates were collected after 2 hours and the level of phosphorylated NFκB (Phosphoserine 536) was quantified for endpoint absorbance at […] and normalized to absorbance of untreated, unstimulated cells. Mean and p values were computed using R base and dplyr packages using normalized values.
# TRIF can participate in TNFα signaling through two distinct mechanisms. Firstly, TRIF can signal NFκB through TRAF6 to increase TNFα transcription. Secondly, TRIF activation can enhance the translation of TNFα mRNA through prolonged MK-2 activation. To determine whether NC reduces TNFα release by blocking TNFα transcription or translation, we collected cell lysates and quantified the levels of phosphorylated NFκB (ser536). Lysates of Raw 264.7 cells treated with NC prior to stimulation with LPS or Poly I:C contained more phosphorylated NFκB (ser536) than untreated cells (FIG. 31). There was no difference in phosphorylated NFκB (ser536) in unstimulated cells treated with NC.
# [2] = test system: IC-21 murine peritoneal macrophages; assay: Toxicity assay, Cell Counting Kit-8 viability; settings: 37° C. two days, CCK-8
# Description: FIG. 10. […] IC-21 murine peritoneal macrophages were seeded at a density of 2.0×10^4 per well in a 96-well plate. Differing concentrations of compound JE ranging from […] were diluted in DMSO and added to the appropriate wells. Cells were incubated at 37° C. for 48 hours. After the incubation period, Cell Counting Kit-8 (Sigma-Aldrich) was used for quantification of viable cells. CCK-8 solution was added to each well and the plate was incubated at 37° C. for two hours. Levels of water-soluble tetrazolium salt reduced to formazan were then measured at a wavelength of 450 nm. Cell viability was found as a percentage by dividing each absorbance value by the negative control.
# To test if JE has any toxicity, we first incubated murine macrophages with JE at different concentrations at 37° C. for two days, and determined viability of the cells. […] Further we injected the JE at 50 μM twice daily via I.P. for 3 or 5 days and then determined ALT levels in sera and examined the morphology in key organs, liver, kidney, spleen, intestines etc.
# NLRP3 inflammasome = assay: JE on IL-1β production and caspase-1 activation by BMDMs upon NLRP3 activation; settings: for IL-1β production upon NLRP3 activation with ATP: 5 mM ATP
# Description: (§1) FIG. 19. The Effect of JE on IL-1β Production by BMDMs Upon NLRP3 Activation. Macrophages were pretreated with the metabolite JE at a concentration of 50 μM overnight at 37° C., 5% CO2. The following day, macrophages were primed with LPS at 500 ng/ml for 4 hours and then activated by ATP for 1 hour at 37° C., 5% CO2. Another approach is to prime the cells with 10 ng/ml LPS for 4 hours, then pretreat with JE overnight. The following day, macrophages were activated with 5 mM ATP for an hour at 37° C., 5% CO2. Supernatants were collected, and […] was measured using ELISA. Data are presented as mean±SEM (n=6). **p<0.01. One of three experiments is shown.
# as §1, with “20.” for “19.”
# FIG. 21. The Impact of JE on Caspase-1 Activation After Priming the Cells with LPS. BMDMs were cultured and seeded as described before. Macrophages were first primed with LPS for 4 hours at 37° C. with 5% CO2. After that, they were treated with the metabolite JE for 1 (LPS1ATP), 2 (LPS2ATP), and 3 (LPS3ATP) hours. Then, the cells were exposed to media containing 5 mM ATP for 1 hour at 37° C. with 5% CO2. Finally, the supernatants were collected and the level of IL-1β was measured using ELISA. Data are presented as mean±SEM (n=6). *p<0.05; ***p<0.001. One of two experiments is shown.
# Next, we explored how JE inhibits caspase-1 activation as well as IL-1β production. As stated above, NLRP3 activation adopts a two-step dogma: priming with LPS, followed by activation by ATP, nigericin, or MSU crystals. […] To achieve that, JE was used to pretreat BMDMs overnight at 37° C., 5% CO2; the next day, macrophages were primed with LPS for 4 hours, then stimulated with ATP for an hour. I collected the supernatant and measured IL-1β by ELISA.
# In an attempt to determine whether JE inhibits the priming or the activation step, BMDMs were stimulated with LPS, then the metabolite JE was used to treat the cells overnight at 37° C., 5% CO2. The following day, macrophages were stimulated with ATP for an hour, then, supernatant was collected to measure IL-1β by ELISA. PBS was used as a control to JE in this experiment. In both conditions, I did a western blot on caspase-1 to elucidate whether JE inhibits caspase-1 activation or not.
# It was also evident by the absence of active caspase-1 in the supernatant on western blot analysis (data not shown). To determine whether JE inhibits the activation signal, instead of pretreating the macrophages with JE overnight. BMDMs were treated with the metabolite JE for 1 hour, 2 hours, and 3 hours after priming with LPS for 4 hours; then 5 mM of ATP was.
compound,measurement,setting,value
"CCCCCCCCCCCCCCCC(=O)N[C@@H](C(=O)O)[C@H](C)O [NC, N-Palmitoyl-D-Threonine]",phosphorylated NFκB (ser536) level,"[1]; 50 μM NC 18 hours, LPS, lysates after 2 hours",more and significantly decreases
same,phosphorylated NFκB (ser536) level,"[1]; 50 μM NC 18 hours, Poly I:C, lysates after 2 hours",more and significantly decreases
same,phosphorylated NFκB (ser536) level,"[1]; NC, unstimulated cells",no difference
"CC(=O)O[C@@H]1CC[C@H]2[C@H]3CC[C@H]4CC(F)(F)CC[C@]4(C)[C@H]3CC[C@]12C [JE, 3,3-Difluoro-5-alpha-androstan-17-beta-yl acetate]",viability of the cells,[2]; JE 50 μM or below,high viability; also recorded: did not show significant reduction
same,viability of the cells,[2]; JE >100 μM,reduced the viability
same,IL-β upon activation of NLRP3 inflammasome,"NLRP3 inflammasome; JE 50 μM pretreatment overnight, LPS priming 4 hours, ATP 1 hour",completely abolished
same,IL-1β production upon NLRP3 activation with ATP,NLRP3 inflammasome; JE for 1 hour after priming with LPS 4 hours,did not have the same effect
same,IL-1β production upon NLRP3 activation with ATP,NLRP3 inflammasome; JE for 2 hours after priming with LPS 4 hours,did not have the same effect
same,IL-1β production upon NLRP3 activation with ATP,NLRP3 inflammasome; JE for 3 hours after priming with LPS 4 hours,significantly decrease
same,active caspase-1 in the supernatant (western blot),"NLRP3 inflammasome; JE pretreatment, LPS priming, ATP",absence
